Source: patent US20070227388A1, “Tetrakisazo Compound, Coloring Matter for Recording, Ink Composition and Colored Article” (priority 2004, published 2007)

experiment: solubility test in water (ammonia alkali) by filter paper spot; assay type: physicochemical
Procedure: (Desalination process) After 83.0 parts of the compound of Formula (28) obtained in the fifth process was dissolved in 800 parts of water, 900 parts of methanol was added, and the deposited coloring matter was filtered and then dried to obtain 66.4 parts of desalted black coloring matter of Formula (28) (a compound No. 1 in Table 1: Na salt). The maximum absorption wavelength (λ max) of this coloring matter in water was 619 nm, and solubility test in water (ammonia alkali) by filter paper spot was no less than 100 g/l. [drawing 72]

Structure (SMILES)	solubility [mg/mL]
COc1ccc(N=Nc2c(S(=O)(=O)O)cc3cc(N=Nc4c(S(=O)(=O)O)cc5c(S(=O)(=O)O)cc(N=Nc6ccc7cc(S(=O)(=O)O)c(N=Nc8ccc(OC)cc8S(=O)(=O)O)c(O)c7c6)c(N)c5c4O)ccc3c2O)c(S(=O)(=O)O)c1 [No. 21]	≥ 100
COc1ccc(N=Nc2c(S(=O)(=O)O)cc3cc(S(=O)(=O)O)c(N=Nc4cc(S(=O)(=O)O)c5cc(S(=O)(=O)O)c(N=Nc6ccc7c(O)c(N=Nc8ccccc8S(=O)(=O)O)c(S(=O)(=O)O)cc7c6)c(O)c5c4N)cc3c2O)c(S(=O)(=O)O)c1 [No. 2]	≥ 100
Nc1c(N=Nc2ccc3c(O)c(N=Nc4cc(C(=O)O)cc(C(=O)O)c4)c(S(=O)(=O)O)cc3c2S(=O)(=O)O)cc(S(=O)(=O)O)c2cc(S(=O)(=O)O)c(N=Nc3ccc4c(O)c(N=Nc5cc(C(=O)O)cc(C(=O)O)c5)c(S(=O)(=O)O)cc4c3S(=O)(=O)O)c(O)c12 [No. 17]	≥ 100
Nc1c(N=Nc2ccc3c(O)c(N=Nc4ccc([N+](=O)[O-])cc4S(=O)(=O)O)c(S(=O)(=O)O)cc3c2S(=O)(=O)O)cc(S(=O)(=O)O)c2cc(S(=O)(=O)O)c(N=Nc3ccc4c(O)c(N=Nc5ccc([N+](=O)[O-])cc5S(=O)(=O)O)c(S(=O)(=O)O)cc4c3S(=O)(=O)O)c(O)c12 [No. 16]	≥ 100
Nc1c(N=Nc2cc3c(O)c(N=Nc4ccc([N+](=O)[O-])cc4S(=O)(=O)O)c(S(=O)(=O)O)cc3cc2S(=O)(=O)O)cc(S(=O)(=O)O)c2cc(S(=O)(=O)O)c(N=Nc3ccc4c(O)c(N=Nc5ccc([N+](=O)[O-])cc5S(=O)(=O)O)c(S(=O)(=O)O)cc4c3S(=O)(=O)O)c(O)c12 [No. 13]	≥ 100
COc1ccc(N=Nc2c(S(=O)(=O)O)cc3c(S(=O)(=O)O)c(N=Nc4cc(S(=O)(=O)O)c5cc(S(=O)(=O)O)c(N=Nc6ccc7c(O)c(N=Nc8ccc(OC)cc8S(=O)(=O)O)c(S(=O)(=O)O)cc7c6S(=O)(=O)O)c(O)c5c4N)ccc3c2O)c(S(=O)(=O)O)c1 [No. 19]	≥ 100
COc1ccc(N=Nc2c(S(=O)(=O)O)cc3c(S(=O)(=O)O)c(N=Nc4cc(S(=O)(=O)O)c5cc(S(=O)(=O)O)c(N=Nc6ccc7c(O)c(N=Nc8ccccc8S(=O)(=O)O)c(S(=O)(=O)O)cc7c6)c(O)c5c4N)ccc3c2O)c(S(=O)(=O)O)c1 [No. 1]	≥ 100
Nc1c(N=Nc2ccc3cc(S(=O)(=O)O)c(N=Nc4ccc([N+](=O)[O-])cc4S(=O)(=O)O)c(O)c3c2)cc(S(=O)(=O)O)c2cc(S(=O)(=O)O)c(N=Nc3ccc4c(O)c(N=Nc5ccc([N+](=O)[O-])cc5S(=O)(=O)O)c(S(=O)(=O)O)cc4c3S(=O)(=O)O)c(O)c12 [No. 6]	≥ 100
